Results taken from patent US20240287089A1, “Preparation and Uses of 7-Azaindenoisoquinolines” (Purdue Research Foundation, priority 0001, published 2024).
Like-named read-outs stand apart in the source and are kept apart here.

Key:
RS4;11 = assay: MTS GI50, Myc-dependent panel; assay type: cell-based; conditions: RS4;11, 72 h, read-out: GI50
Protocol: (§1) Cytotoxicity Results in Myc-dependent Cancer Cell Lines.
(§2) MTS Cell Viability IC50 Assay. Drug solutions for MTS IC50 assays of suspension cell lines were made from DMSO stocks by serial-dilutions in 1×PBS (10010-031, Gibco). To set up treatments, drug solutions were plated in triplicates to 96-well tissue culture plates, to which cell-containing media was added to a total volume of 100 μL/well. 100%-viability controls were untreated cells. 2000 cells/well were plated for all suspension cell lines except 3000 cells/well for KMS-27 and 10000 cells/well for CHLA-32. Blanks were cell-free media. Drug treatments were maintained for 72 hr at 37° C. with 5% CO2. To quantify cells, CellTiter 96 AQueous MTS Reagent Powder (G1111, Promega) was dissolved and mixed with phenazine methosulfate (PMS, Sigma-Aldrich P9625) according to manufacturer's instructions. MTS/PMS mix ([…]) was added to treatment wells, 100%-viability control wells, and blank wells. Colors were developed at 37° C. with 5% CO2 for 4 h and absorbance at 490 nm was measured by BioTek Synergy 4 system. To obtain %-viability, A490 values were corrected by blank subtraction, normalized to 100%-viability control, and averaged. Average %-viabilities were plotted against drug dosages to obtain dose-response curves. […] For adherent cell lines, the MTS IC50 assays were conducted the same way as for suspension cell lines except for cell plating and drug treatment. For cell plating, 50 μL of 2000 cells were plated in triplicates to a 96-well tissue culture plate. Cells were allowed sufficient time to become adherent. Serial-diluted drug solutions were made the same way as in the MTS IC50 assays. To set up treatments, drug solutions were mixed with media to two-fold of the final concentrations, and 50 μL of such drug-media mix was then added to 50 μL of plated cells.

RD-ES = assay: MTS GI50, Myc-dependent panel; assay type: cell-based; conditions: 72 h, read-out: GI50
Protocol: as §1, §2

HL-60 = assay: MTS GI50, Myc-dependent panel; assay type: cell-based; conditions: HL-60, 72 h, read-out: GI50
Protocol: as §1, §2

ARD = assay: MTS GI50, Myc-dependent panel; assay type: cell-based; conditions: ARD, 72 h; read-out: GI50
Protocol: as §1, §2

K-562 = assay: MTS GI50, Myc-dependent panel; assay type: cell-based; conditions: K-562, 72 h, read-out: GI50
Protocol: as §1, §2

L-363 = assay: MTS GI50, Myc-dependent panel; assay type: cell-based; conditions: L-363, 72 h, read-out: GI50
Protocol: as §1, §2

CHLA-32 = assay: MTS GI50, Myc-dependent panel; assay type: cell-based; conditions: CHLA-32, 72 h; read-out: GI50
Protocol: as §1, §2

CHLA-99 = assay: MTS GI50, Myc-dependent panel; assay type: cell-based; conditions: CHLA-99, 72 h; read-out: GI50
Protocol: as §1, §2

RPMI-8226 = assay: MTS GI50, Myc-dependent panel; assay type: cell-based; conditions: RPMI-8226, 72 h, read-out: GI50
Protocol: as §1, §2

MCF-7 = assay: MTS GI50, Myc-dependent panel; assay type: cell-based; conditions: MCF-7, 72 h, read-out: GI50
Protocol: as §1, §2

TC-32 = assay: MTS GI50, Myc-dependent panel; assay type: cell-based; conditions: TC-32, 72 h, read-out: GI50
Protocol: as §1, §2

AMO-1 = assay: MTS GI50, Myc-dependent panel; assay type: cell-based; conditions: AMO-1, 72 h, read-out: GI50
Protocol: as §1, §2

TC-71 = assay: MTS GI50, Myc-dependent panel; assay type: cell-based; conditions: TC-71, 72 h; read-out: GI50
Protocol: as §1, §2

Kasumi-1 = assay: MTS GI50, Myc-dependent panel; assay type: cell-based; conditions: Kasumi-1, 72 h, read-out: GI50
Protocol: as §1, §2

THP-1 = assay: MTS GI50, Myc-dependent panel; assay type: cell-based; conditions: THP-1, 72 h, read-out: GI50
Protocol: as §1, §2

TC-106 = assay: MTS GI50, Myc-dependent panel; assay type: cell-based; conditions: TC-106, 72 h; read-out: GI50
Protocol: as §1, §2

CCRF-CRM = assay: MTS GI50, Myc-dependent panel; assay type: cell-based; conditions: CCRF-CRM, 72 h; read-out: GI50
Protocol: as §1, §2

MDA-MB-231 = assay: MTS GI50, Myc-dependent panel; assay type: cell-based; conditions: MDA-MB-231, 72 h, read-out: GI50
Protocol: as §1, §2

SK-N-MC = assay: MTS GI50, Myc-dependent panel; assay type: cell-based; conditions: 72 h, read-out: GI50
Protocol: as §1, §2

KMS-27 = assay: MTS GI50, Myc-dependent panel; assay type: cell-based; conditions: KMS-27, 72 h; read-out: GI50
Protocol: as §1, §2

MOLT-4 = assay: MTS GI50, Myc-dependent panel; assay type: cell-based; conditions: MOLT-4, 72 h, read-out: GI50
Protocol: as §1, §2

RAJI lymphoma cells = assay: MTS cell viability IC50 assay; assay type: cell-based; conditions: 72 h
Protocol: Cytotoxicity Results in Raji Non-Hodgkin's Lymphoma Cells. MTS experiments were then conducted to test the anti-proliferative effects of 7-aza-8,9-methylenedioxyindenoisoquinolines in Raji cells. Cells were incubated at 2-2000 nM of each drug for 72 h, and cell viabilities were quantified using the MTS assay. […] This potency trend generally correlated with the western blot results, in which G106 and G108 […] show weaker Myc downregulation.
as §2

[1] = biological target: 3′-TAMRA-labeled MycG4 DNA; assay: Fluorescence binding assay; conditions: 20° C., 100 mM K+ buffer, pH 7.0; read-out: Apparent Binding Affinity Kd, app
Protocol: Binding Affinity to the Myc G-Quadruplex. Binding affinity of eight 7-aza-8,9-methylenedioxyindenoisoquinolines to MycG4 was determined using a fluorescence binding assay with a 3′-TAMRA-labeled MycG4 DNA. Monitoring TAMRA emission upon drug titration afforded binding isotherms, from which apparent binding affinities, Kd,app, were derived.
Fluorescence-Based Binding Assays. Fluorescence-based binding assays were performed on a Jasco FP-8300 spectrofluorometer equipped with a temperature controller at 20° C. in a quartz cuvette with a 10 mm path length. 3′-TAMRA-labeled MycG4 DNA (Sigma-Aldrich) was diluted to 20 nM using a 75 mM KCl/25 mM potassium phosphate buffer, pH 7.0. […] Fluorescence intensity at 580 nm, the maximum for the free DNA, was plotted against drug:DNA ratio. The apparent binding dissociation constant, Kd,app, was derived for the binding of each compound. Using OriginPro software (OriginLab Corp., United States) the change in fluorescence intensity was fitted to a one-site binding equation,
where B0 is the initial fluorescence intensity, B is maximum change in fluorescence intensity, R is DNA concentration, and L is drug:DNA ratio.

in vivo = conditions: male, CD1, mouse, iv, 20 mg/kg
Protocol: Brain Penetration Studies. […] The concentrations were determined by LC-MS/MS with direct measurement of the plasma samples. The brain tissue was homogenized with water using a 3:1 ratio of water (mL) to brain (g) before determination of the concentrations (ng/mL) in the brain homogenates, and the homogenate values then were multiplied by a factor of 4 to obtain the brain concentrations (ng/g).

SMILES	GI50 (RD-ES) [nM]	GI50 (ARD) [nM]	GI50 (CHLA-32) [nM]	GI50 (CHLA-99) [nM]	GI50 (TC-71) [nM]	GI50 (TC-106) [nM]	GI50 (CCRF-CRM) [nM]	GI50 (KMS-27) [nM]	Kd [1] [nM]	GI50 (RS4;11; Homo sapiens) [nM]	GI50 (HL-60; Homo sapiens) [nM]	GI50 (K-562; Homo sapiens, K562) [nM]	GI50 (L-363; Homo sapiens) [nM]	GI50 (RPMI-8226; Homo sapiens) [nM]	GI50 (MCF-7; Homo sapiens, MCF7) [nM]	GI50 (TC-32; Homo sapiens) [nM]	GI50 (AMO-1; Homo sapiens, AMO1) [nM]	GI50 (Kasumi-1; Homo sapiens) [nM]	GI50 (THP-1; Homo sapiens) [nM]	GI50 (MDA-MB-231; Homo sapiens) [nM]	other results
COc1cc2c3c(n(CCCNCCO)c(=O)c2cc1OC)-c1cc2c(cc1C3=O)OCO2 [LMP744]	24	77	156	77	244	277	57	190	11												GI50 (RS4;11): 30 nM; GI50 (HL-60): 354 nM; GI50 (K-562): 219 nM; GI50 (L-363): 119 nM; GI50 (RPMI-8226): 620 nM; GI50 (MCF-7): > 2000 nM; GI50 (TC-32): 121 nM; GI50 (AMO-1): 285 nM; GI50 (Kasumi-1): 721 nM; GI50 (THP-1): 305 nM; GI50 (MDA-MB-231): 968 nM; GI50 (SK-N-MC): 237 nM; GI50 (MOLT-4): 4 nM; IC50 (RAJI lymphoma cells; RAJI): 120 nM
CCNCCCn1c2c(c3cc(OC)c(OC)cc3c1=O)C(=O)c1cc3c(nc1-2)OCO3 [G104, 6-(3-(Ethylamino)propyl)-2,3-dimethoxy-5H-[1,3]dioxolo[4″,5″:5′,6′]pyrido [3′,2′:4,5]cyclopenta[1,2-c]isoquinoline-5,12(6H)-dione]	20	55	33	58	122	157	49	141	55	38	270	158	96	190	> 2000	53	184	266	358	476	Cmax (in vivo): 1610 ng/g; Vd (in vivo): 58.4 L/kg; half-life (in vivo): 7.06 h; GI50 (SK-N-MC; Homo sapiens): 137 nM; GI50 (MOLT-4; Homo sapiens): 13 nM; IC50 (RAJI lymphoma cells; Homo sapiens, Raji): 131 nM
COc1cc2c3c(n(CCCn4ccnc4)c(=O)c2cc1OC)-c1nc2c(cc1C3=O)OCO2 [G102, 6-(3-(1H-Imidazol-1-yl)propyl)-2,3-dimethoxy-5H-[1,3]dioxolo[4″,5″:5′,6′]pyrido[3′,2′:4,5]cyclopenta[1,2-c]isoquinoline-5,12(6H)-dione]	180	111	280	265	199	229	117	238	147	120	> 2000	580	232	481	> 2000	127	804	> 2000	1020	1050	GI50 (SK-N-MC; Homo sapiens): 170 nM; GI50 (MOLT-4; Homo sapiens): 43 nM; IC50 (RAJI lymphoma cells; Homo sapiens, Raji): 153 nM
COc1cc2c3c(n(CCCN4CCOCC4)c(=O)c2cc1OC)-c1cc2c(cc1C3=O)OCO2 [LMP400, indotecan]	472	126	812	773	1060	605	316	543	301	336	1390	864	214	989	> 2000	574	738	> 2000	915	1900	GI50 (SK-N-MC; Homo sapiens): 1050 nM; GI50 (MOLT-4; Homo sapiens): 239 nM; IC50 (RAJI lymphoma cells; Homo sapiens, Raji): 190 nM
COc1cc2c3c(n(CCCNC(C)C)c(=O)c2cc1OC)-c1nc2c(cc1C3=O)OCO2 [G103, 6-(3-(Isopropylamino)propyl)-2,3-dimethoxy-5H-[1,3]dioxolo [4″,5″:5′,6′]pyrido[3′,2′:4,5]cyclopenta[1,2-c]isoquinoline-5,12(6H)-dione]	31	70	55	89	153	202	57	206		53	328	182	126	234	> 2000	55	317	432	602	644	Cmax (in vivo): 3810 ng/g; GI50 (SK-N-MC; Homo sapiens): 150 nM; GI50 (MOLT-4; Homo sapiens): 19 nM; IC50 (RAJI lymphoma cells; Homo sapiens, Raji): 167 nM
COc1cc2c3c(n(CCCNCCO)c(=O)c2cc1OC)-c1nc2c(cc1C3=O)OCO2 [G105, 6-(3-((2-Hydroxyethyl)amino)propyl)-2,3-dimethoxy-5H-[1,3]dioxolo[4″,5″:5′,6′]pyrido[3′,2′:4,5]cyclopenta[1,2-c]isoquinoline-5,12(6H)-dione]	22	121	96	31	197	202	57	141	97	34	290	196	154	559	1390	104	461	530	300	806	Vd (in vivo): 29 L/kg; GI50 (SK-N-MC; Homo sapiens): 173 nM; GI50 (MOLT-4; Homo sapiens): 12 nM; IC50 (RAJI lymphoma cells; Homo sapiens, Raji): 147 nM
COc1cc2c3c(n(CCCN4CCOCC4)c(=O)c2cc1OC)-c1nc2c(cc1C3=O)OCO2 [G101, 2,3-Dimethoxy-6-(3-morpholinopropyl)-5H-[1,3]dioxolo[4″,5″:5′,6′]pyrido[3′,2′:4,5]cyclopenta[1,2-c]isoquinoline-5,12(6H)-dione]	608	190	708	526	756	848	248	530	249	283	> 2000	1010	342	905	> 2000	569	1220	> 2000	1320	> 2000	GI50 (SK-N-MC; Homo sapiens): 698 nM; GI50 (MOLT-4; Homo sapiens): 113 nM; IC50 (RAJI lymphoma cells; Homo sapiens, Raji): 340 nM
